Measurements published in patent US4039540A, “3-Substituted quinoxaline-2-carboxamide-1,4-dioxides” (Pfizer Inc., priority 1975, dated 1977).
Values after ≈ are worked out from the molar mass of the structure shown. Where two headings read alike, the source gives them in different places.

What was measured:
Strep. pyrogens = assay: in vitro antibacterial activity, two-fold serial dilution in Brain-Heart Infusion Broth (MIC); type: cell-based; conditions: overnight, anaerobic
E. coli [1] = assay: as above; type: cell-based; conditions: Escherichia coli, overnight, anaerobic
pathogenic bacteria = assay: in vivo activity in infected mice, last four lines of the table; conditions: bacterium and dose in drawing 28, not readable; for IN VIVO number of survivors among the treated animals (head drawing 28): subcutaneous
Experimental: In determining the in vivo activity of the quinoxaline-1,4-dioxides of this invention, the test compound is administered to mice which have been infected by […] injection of a lethal inoculum of pathogenic bacteria. The test compound is administered using a multiple dosing regimen and using either the oral (PO) or the subcutaneous (SC) route. The inoculum of bacteria varies from about 1 to about 10 times the amount needed to kill 100% of the mice under the conditions of the test. At the end of the test, the activity of the compound is assessed by counting the number of survivors among the treated animals.
In vitro and in vivo activity of representative compounds of this invention, determined as aforesaid, are reported in the following tabulation for compounds of the formula: [drawing 12]

Strep. pyogenes = assay: in vivo activity in mice infected with a lethal inoculum of Strep. pyogenes; conditions: Streptococcus pyogenes, multiple dosing
E. coli [2] = assay: in vivo activity in mice infected with a lethal inoculum of E. coli; conditions: Escherichia coli, sc, subcutaneous, multiple dosing, read-out: IN VIVO E. coli, number of survivors among the treated animals
[3] = oral, read-out: IN VIVO Strep. pyogenes, number of survivors among the treated animals, PO (data in parenthesis)
[4] = sc, subcutaneous, read-out: IN VIVO Strep. pyogenes, number of survivors among the treated animals

Row | SMILES | MIC (Strep. pyrogens) [µg/mL] | MIC (E. coli [1]) [µg/mL] | IN VIVO number of survivors among the treated animals, PO (data in parenthesis; head drawing 28) (pathogenic bacteria) | IN VIVO number of survivors among the treated animals (head drawing 28) (pathogenic bacteria) | responders at 50 mg/kg (Strep. pyogenes; [3]) [%] | responders at 50 mg/kg (Strep. pyogenes; [4]) [%] | responders at 25 mg/kg (E. coli [2]) [%]
1 | CNC(=O)c1c(CS(=O)(=O)CCCCN2CCCCC2)[n+]([O-])c2ccccc2[n+]1[O-] [NHCH3; drawing 29; H] | 6.25 (≈ 14.3 µM) | 12.5 (≈ 28.6 µM) | 7/10 | 10/10 | – | – | –
2 | NC(=O)c1c(CS(=O)(=O)CCCCN2CCCCC2)[n+]([O-])c2ccccc2[n+]1[O-] [NH2; drawing 31; H] | 12.5 (≈ 29.6 µM) | 25 (≈ 59.2 µM) | 0/10 | 9/10 | – | – | –
3 | CN(C)C(=O)c1c(CS(=O)(=O)CCCCN2CCCCC2)[n+]([O-])c2ccccc2[n+]1[O-] [N(CH3)2; drawing 30; H] | 6.25 (≈ 13.9 µM) | 12.5 (≈ 27.7 µM) | 1/10 | 8/10 | – | – | –
4 | CCNC(=O)c1c(CS(=O)(=O)CCCCN2CCCCC2)[n+]([O-])c2ccccc2[n+]1[O-] [NHCH2 CH3; drawing 32; H] | 6.25 (≈ 13.9 µM) | 12.5 (≈ 27.7 µM) | 7/10 | 4/10 | – | – | –
5 | O=C(NCCCO)c1c(CSCCO)[n+]([O-])c2ccccc2[n+]1[O-] [NHCH2 CH2 CH2 OH; SCH2 CH2 OH; H] | 25 (≈ 70.7 µM) | 50 (≈ 141 µM) | – | – | 30 | 10 | 20
6 | CCCNC(=O)c1c(CSCCO)[n+]([O-])c2ccccc2[n+]1[O-] [NHPr; SCH2 CH2 OH; H] | 6.25 (≈ 18.5 µM) | 25 (≈ 74.1 µM) | – | – | 30 | 50 | 20
7 | CCCNC(=O)c1c(CS(=O)(=O)CCCN(C)C)[n+]([O-])c2ccccc2[n+]1[O-] [NHCH2 CH2 CH3; SO2 (CH2)3 N(CH3)2; H] | 25 (≈ 60.9 µM) | 25 (≈ 60.9 µM) | – | – | 80 | 100 | 20
